Common to all, as to type: cell-based
Test [1] concerns Escherichia coli. Kind of test: Broth microdilution susceptibility testing (MIC), Escherichia coli. The conditions noted are these: broth microdilution (NCCLS, 2002), read-out: Minimal inhibitory concentration against Escherichia coli. On the procedure: (§1) The list is not intended, nor should it be construed, to limit the scope of this invention in any manner whatsoever.
(§2) Compounds were tested for antimicrobial activity against several bacterial stains using standard broth microdilution susceptibility testing methodology (NCCLS, 2002). […] The enhanced activity of Compound 1 is especially noteworthy.
(§3) NCCLS. 2002. Performance standards for antimicrobial disk and dilution susceptibility tests for bacteria isolated from animals; approved standard-second edition. NCCLS document M31-A2 [ISBN 1-56238-461-9]. NCCLS, 940 West Valley Road, Suite 1400, Wayne, Pa. 19087-1898 USA.
A general note: In broth dilution the organism is exposed to a series of concentrations in liquid medium.

Test [2] concerns Pasteurella multocida. Kind of test: Broth microdilution susceptibility testing (MIC), Pasteurella multocida. The conditions noted are these: broth microdilution (NCCLS, 2002), read-out: Minimal inhibitory concentration against Pasteurella multocida. The protocol: as §1, §2, §3
The subject of test [3] is Florfenicol-resistant Pasteurella multocida. Kind of test: Broth microdilution susceptibility testing (MIC), florfenicol-resistant Pasteurella multocida. The conditions noted are these: for MIC: Pasteurella multocida, broth microdilution (NCCLS, 2002), florfenicol-resistant strain, read-out: Minimal inhibitory concentration against Florfenicol-resistant Pasteurella multocida. On the procedure: as §1, §2, §3

For test [4], the system named is Mannheimia haemolytica. Nature of the test: Broth microdilution susceptibility testing (MIC), Mannheimia haemolytica. The conditions noted are these: broth microdilution (NCCLS, 2002), read-out: Minimal inhibitory concentration against Mannheimia haemolytica. The protocol: as §1, §2, §3
The subject of test [5] is Staphylococcus aureus. Kind of test: Broth microdilution susceptibility testing (MIC), Staphylococcus aureus. The conditions noted are these: broth microdilution (NCCLS, 2002), read-out: Minimal inhibitory concentration against Staphylococcus aureus. The protocol:
as §1, §2, §3

The test system of test [6] is five bacterial strains. Kind of test: Broth microdilution susceptibility testing, comparison with florfenicol over the strain panel. The conditions noted are these: five bacterial strains of Table 2. On the procedure: as §1, §2, §3

In brackets after ≈: the same amount, converted by molar mass.

With `O=C(N[C@H](CO)[C@H](O)c1ccc([N+](=O)[O-])cc1)C(Cl)Cl` [Chloramphenicol, reference compound], the MIC amounted to 4 µg/mL (≈ 12.4 µM) in test [1]; 0.25 µg/mL (≈ 0.774 µM) in test [2]; 16 µg/mL (≈ 49.5 µM) in test [3]; 1 µg/mL (≈ 3.09 µM) in test [4]; 8 µg/mL (≈ 24.8 µM) in test [5].

For `O=C(N[C@H](CF)[C@H](O)c1ccc(S(=O)(=O)CF)cc1)C(Cl)Cl` [Compound 1, N-((1S,2R)-1-(Fluoromethyl)-2-{4-[(fluoromethyl)sulfonyl]phenyl}-2-hydroxyethyl)-2,2-dichloroacetamide], the MIC was 4 µg/mL (≈ 10.6 µM) in test [1]; 0.06 µg/mL (≈ 0.159 µM) in test [2]; 2 µg/mL (≈ 5.32 µM) in test [3]; 0.5 µg/mL (≈ 1.33 µM) in test [4]; 2 µg/mL (≈ 5.32 µM) in test [5]. Moreover, the “Activity relative to florfenicol against florfenicol-resistant Pasteurella multocida” value in test [3] (versus florfenicol) is reported as 8 fold. For the same compound, the “Activity compared with florfenicol over the strains tested” value in test [6] was “more active than florfenicol for all five bacterial strains”.

For `O=C(N[C@H](CF)[C@H](O)c1ccc(S(=O)(=O)CF)cc1)C(F)(F)F` [Compound 2], the MIC in test [1] turned out to be 32 µg/mL (≈ 88.6 µM); in test [2] it was 1 µg/mL (≈ 2.77 µM); in test [3] it was 8 µg/mL (≈ 22.1 µM); in test [4], 0.5 µg/mL (≈ 1.38 µM); in test [5], 16 µg/mL (≈ 44.3 µM).

With `O=C(N[C@H](CF)[C@H](O)c1ccc(S(=O)(=O)C(Cl)Cl)cc1)C(Cl)Cl` [Compound 3], the MIC is over 128 µg/mL in test [1]; 0.5 µg/mL (≈ 1.17 µM) in test [2]; 4 µg/mL (≈ 9.37 µM) in test [3]; 0.5 µg/mL (≈ 1.17 µM) in test [4]; 8 µg/mL (≈ 18.7 µM) in test [5].

On to `N#CCC(=O)N[C@H](CF)[C@H](O)c1ccc(S(=O)(=O)CF)cc1` [Compound 4], for which the MIC in test [1] was 16 µg/mL (≈ 48.1 µM); in test [2], 1 µg/mL (≈ 3.01 µM); in test [3] it was over 128 µg/mL; in test [4], 0.5 µg/mL (≈ 1.5 µM); in test [5], 8 µg/mL (≈ 24.1 µM).

For `[N-]=[N+]=NCC(=O)N[C@H](CF)[C@H](O)c1ccc(S(=O)(=O)CF)cc1` [Compound 5], the MIC was 8 µg/mL (≈ 23 µM) in test [1]; 0.25 µg/mL (≈ 0.718 µM) in test [2]; 16 µg/mL (≈ 45.9 µM) in test [3]; 0.25 µg/mL (≈ 0.718 µM) in test [4]; 8 µg/mL (≈ 23 µM) in test [5].

Take `C[C@@H](N)C(=O)N[C@H](CF)[C@H](O)c1ccc(S(=O)(=O)CF)cc1` [Compound 6]: the MIC is 32 µg/mL (≈ 95.1 µM) in test [1]; 1 µg/mL (≈ 2.97 µM) in test [2]; 128 µg/mL (≈ 381 µM) in test [3]; 1 µg/mL (≈ 2.97 µM) in test [4]; 64 µg/mL (≈ 190 µM) in test [5].

Turning to `NCC(=O)N[C@H](CF)[C@H](O)c1ccc(S(=O)(=O)CF)cc1` [Compound 7], the MIC is 128 µg/mL (≈ 397 µM) in test [1]; 1 µg/mL (≈ 3.1 µM) in test [2]; over 128 µg/mL in test [3]; 1 µg/mL (≈ 3.1 µM) in test [4]; 64 µg/mL (≈ 199 µM) in test [5].

Regarding `O=C(N[C@H](CF)[C@H](O)c1ccc(S(=O)(=O)C(F)F)cc1)C(Cl)Cl` [Compound 8], the MIC turned out to be 16 µg/mL (≈ 40.6 µM) in test [1]; 0.125 µg/mL (≈ 0.317 µM) in test [2]; 2 µg/mL (≈ 5.07 µM) in test [3]; 0.5 µg/mL (≈ 1.27 µM) in test [4]; 4 µg/mL (≈ 10.1 µM) in test [5].

`O=C(N[C@H](CF)[C@H](O)c1ccc(S(=O)(=O)CF)cc1)C(F)F` [Compound 9]: the MIC in test [1] worked out at 4 µg/mL (≈ 11.7 µM); in test [2] it was 0.25 µg/mL (≈ 0.728 µM); in test [3] it was 8 µg/mL (≈ 23.3 µM); in test [4], 0.5 µg/mL (≈ 1.46 µM); in test [5], 8 µg/mL (≈ 23.3 µM).

As for `O=C(N[C@H](CF)[C@H](O)c1ccc(S(=O)(=O)CF)cc1)C(Cl)Br` (stereo partly drawn) [Compound 10], the MIC in test [1] was determined as 8 µg/mL (≈ 19 µM); in test [2] it was 0.25 µg/mL (≈ 0.594 µM); in test [3], 4 µg/mL (≈ 9.51 µM); in test [4], 0.5 µg/mL (≈ 1.19 µM); in test [5], 4 µg/mL (≈ 9.51 µM).

As to `O=C(N[C@H](CF)[C@H](O)c1ccc(S(=O)(=O)CF)cc1)C(F)Cl` (stereo partly drawn) [Compound 11], the MIC in test [1] was determined as 4 µg/mL (≈ 11.1 µM); in test [2], 0.25 µg/mL (≈ 0.695 µM); in test [3], 4 µg/mL (≈ 11.1 µM); in test [4] it was 0.25 µg/mL (≈ 0.695 µM); in test [5], 2 µg/mL (≈ 5.56 µM).

For the compound `CC(=O)N[C@H](CF)[C@H](O)c1ccc(S(=O)(=O)CF)cc1` [Compound 12], the MIC in test [1] was over 128 µg/mL; in test [2] it was 1 µg/mL (≈ 3.25 µM); in test [3], 32 µg/mL (≈ 104 µM); in test [4], 2 µg/mL (≈ 6.51 µM); in test [5], over 128 µg/mL.

Regarding `CS(=O)(=O)c1ccc([C@@H](O)[C@@H](CF)NC(=O)C(Cl)Cl)cc1` [Florfenicol, reference compound], the MIC in test [1] worked out at 8 µg/mL (≈ 22.3 µM); in test [2], 0.25 µg/mL (≈ 0.698 µM); in test [3], 16 µg/mL (≈ 44.7 µM); in test [4], 1 µg/mL (≈ 2.79 µM); in test [5] it was 8 µg/mL (≈ 22.3 µM).

Turning to `CS(=O)(=O)c1ccc([C@@H](O)[C@@H](CO)NC(=O)C(Cl)Cl)cc1` [Thiamphenicol, reference compound], the MIC in test [1] was 64 µg/mL (≈ 180 µM); in test [2] it was 0.25 µg/mL (≈ 0.702 µM); in test [4] it was 1 µg/mL (≈ 2.81 µM).
